Laboratory results as given in ChEMBL document CHEMBL3108665, “Himbacine-derived thrombin receptor antagonists: c7-aminomethyl and c9a-hydroxy analogues of vorapaxar” (ACS Med Chem Lett, 2014).
The source made the active and inactive calls. The calls are words filed in the database; no cut-off is given here.

How the values were obtained:
[1] = target: T1, Proteinase-activated receptor 1 (Homo sapiens, UniProt P25116); assay: Displacement of [3H]haTRAP from PAR-1 isolated from human platelets by liquid scintillation counting analysis
T1 sequence (P25116 whole entry): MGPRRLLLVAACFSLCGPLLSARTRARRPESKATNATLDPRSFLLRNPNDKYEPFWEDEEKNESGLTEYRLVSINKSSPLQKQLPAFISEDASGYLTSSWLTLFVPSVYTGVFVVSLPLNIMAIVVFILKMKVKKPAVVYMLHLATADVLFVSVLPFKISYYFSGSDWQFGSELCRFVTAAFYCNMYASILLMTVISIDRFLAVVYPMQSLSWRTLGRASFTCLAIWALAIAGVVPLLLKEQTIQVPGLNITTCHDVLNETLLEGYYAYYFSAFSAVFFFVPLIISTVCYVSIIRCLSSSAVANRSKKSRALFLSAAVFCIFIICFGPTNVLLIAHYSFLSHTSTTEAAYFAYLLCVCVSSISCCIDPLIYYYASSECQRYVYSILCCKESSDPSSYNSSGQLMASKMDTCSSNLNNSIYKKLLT

[2] = AUC (0 to 6 hrs) in rat plasma at 10 mg/kg, po; type: ADME, organism-based; design: time < 6 hr, dose 10 mg/kg, route oral
Cynomolgus monkey = assay: Ex vivo inhibition of PAR-1 in cynomolgus monkey blood assessed as inhibition of haTRAP-induced platelet aggregation at 1 mg/kg, po up to 24 hrs by aggregometry; type: functional, organism-based; design: dose 1 mg/kg; settings: Macaca fascicularis
[3] = Aqueous solubility of the compound; type: physicochemical

| SMILES | Ki [1] [nM] | AUC(0-t) at 6 h [2] [ng·h/mL] | Activity (Cynomolgus monkey) | solubility [3] [µM] |
| --- | --- | --- | --- | --- |
| C[C@H]1OC(=O)[C@@H]2C[C@@H]3C[C@H](CO)CC[C@H]3[C@H](/C=C/c3ccc(-c4cccc(F)c4)cn3)[C@H]12 | 8 | 2670 | – | – |
| C[C@H]1OC(=O)[C@@H]2C[C@@H]3C[C@H](C(=O)N4CC[C@@H](O)C4)CC[C@H]3[C@H](/C=C/c3ccc(-c4cccc(C(F)(F)F)c4)cn3)[C@H]12 | 180 | – | – | – |
| CCNC(=O)[C@@H]1CC[C@@H]2[C@@H](C1)C[C@H]1C(=O)O[C@H](C)[C@H]1[C@H]2/C=C/c1ccc(-c2cccc(C(F)(F)F)c2)cn1 | 35 | – | – | – |
| C[C@H]1OC(=O)[C@@H]2C[C@@H]3C[C@H](CNC(=O)[C@@H]4CCCN4)CC[C@H]3[C@H](/C=C/c3ccc(-c4cccc(F)c4)cn3)[C@H]12 | 24 | – | – | – |
| CC(C)NC(=O)[C@@H]1CC[C@@H]2[C@@H](C1)C[C@H]1C(=O)O[C@H](C)[C@H]1[C@H]2/C=C/c1ccc(-c2cccc(C(F)(F)F)c2)cn1 | 31 | – | – | – |
| CCOC(=O)N[C@@H]1CC[C@@H]2[C@@H](C1)C[C@H]1C(=O)O[C@H](C)[C@H]1[C@H]2/C=C/c1ccc(-c2cccc(F)c2)cn1 [VORAPAXAR] | 8.5 | 3060 | – | – |
| COC(=O)NC[C@@H]1CC[C@@H]2[C@@H](C1)C[C@H]1C(=O)O[C@H](C)[C@H]1[C@H]2/C=C/c1ccc(-c2cccc(F)c2)cn1 | 5 | 4860 | inactive | – |
| CCC(=O)NC[C@@H]1CC[C@@H]2[C@@H](C1)C[C@H]1C(=O)O[C@H](C)[C@H]1[C@H]2/C=C/c1ccc(-c2cccc(F)c2)cn1 | 12.5 | 7730 | – | – |
| CC(=O)NC[C@@H]1CC[C@@H]2[C@@H](C1)C[C@H]1C(=O)O[C@H](C)[C@H]1[C@H]2/C=C/c1ccc(-c2cccc(F)c2)cn1 | 12 | 3810 | – | – |
| C[C@H]1OC(=O)[C@@H]2C[C@@H]3C[C@H](CN)CC[C@H]3[C@H](/C=C/c3ccc(-c4cccc(F)c4)cn3)[C@H]12 | 20 | – | – | – |
| CCNC(=O)NC[C@@H]1CC[C@@H]2[C@@H](C1)C[C@H]1C(=O)O[C@H](C)[C@H]1[C@H]2/C=C/c1ccc(-c2cccc(F)c2)cn1 | 12.9 | 567 | – | – |
| C[C@H]1OC(=O)[C@@H]2C[C@@H]3C[C@H](C(=O)N4CC[C@H](O)C4)CC[C@H]3[C@H](/C=C/c3ccc(-c4cccc(C(F)(F)F)c4)cn3)[C@H]12 | 384 | – | – | – |
| C[C@H](N)C(=O)NC[C@@H]1CC[C@@H]2[C@@H](C1)C[C@H]1C(=O)O[C@H](C)[C@H]1[C@H]2/C=C/c1ccc(-c2cccc(F)c2)cn1 | 32 | – | – | – |
| CNC(=O)[C@@H]1CC[C@@H]2[C@@H](C1)C[C@H]1C(=O)O[C@H](C)[C@H]1[C@H]2/C=C/c1ccc(-c2cccc(C(F)(F)F)c2)cn1 | 25 | – | – | – |
| C[C@H]1OC(=O)[C@@H]2C[C@@H]3C[C@H](C(=O)Nc4cccnc4)CC[C@H]3[C@H](/C=C/c3ccc(-c4cccc(C(F)(F)F)c4)cn3)[C@H]12 | 239 | – | – | – |
| CCS(=O)(=O)NC[C@@H]1CC[C@@H]2[C@@H](C1)C[C@H]1C(=O)O[C@H](C)[C@H]1[C@H]2/C=C/c1ccc(-c2cccc(F)c2)cn1 | 14.5 | – | – | – |
| C[C@H]1OC(=O)[C@@H]2C[C@@H]3C[C@H](CNS(C)(=O)=O)CC[C@H]3[C@H](/C=C/c3ccc(-c4cccc(F)c4)cn3)[C@H]12 | 15 | 7760 | – | – |
| CCOC(=O)NC[C@@H]1CC[C@@H]2[C@@H](C1)C[C@H]1C(=O)O[C@H](C)[C@H]1[C@H]2/C=C/c1ccc(-c2cccc(F)c2)cn1 | 14 | 1210 | – | – |
| C[C@H]1OC(=O)[C@@H]2C[C@@H]3C[C@H](C(=O)NCCO)CC[C@H]3[C@H](/C=C/c3ccc(-c4cccc(C(F)(F)F)c4)cn3)[C@H]12 | 98 | – | – | – |
| C[C@H]1OC(=O)[C@@H]2C[C@@H]3C[C@H](C(=O)Nc4ccncc4)CC[C@H]3[C@H](/C=C/c3ccc(-c4cccc(C(F)(F)F)c4)cn3)[C@H]12 | 140 | – | – | – |
| CCOC(=O)N1CC[C@@H]2[C@H](C[C@H]3C(=O)O[C@H](C)[C@H]3[C@H]2/C=C/c2ccc(-c3cccc(F)c3)cn2)C1 | – | – | – | < 2 |
| C[C@H]1OC(=O)[C@@H]2C[C@@H]3C[C@H](CNC(=O)C4CCNCC4)CC[C@H]3[C@H](/C=C/c3ccc(-c4cccc(F)c4)cn3)[C@H]12 | 13.5 | 5 | – | – |
| CCOC(=O)N[C@@H]1CC[C@@H]2[C@@H](C1)C[C@@]1(O)C(=O)O[C@H](C)[C@H]1[C@H]2/C=C/c1ccc(-c2cccc(F)c2)cn1 | 19.5 | 7430 | Active | – |
